Reference: US9255090B2, “Heterocyclyl derivatives and their use as prostaglandin D2 receptor modulators” (Actelion Pharmaceuticals Ltd., priority 2012, dated 2016)
pIC50: −log10 of the molar value.

Target: hCRTH2 receptor (Homo sapiens (Human), UniProt Q9Y5Y4)
Experiment: hCRTH2 receptor membranes radioligand (3H-PGD2) displacement assay
Assay type: binding
Conditions: 3H-PGD2 radioligand displacement, HEK293-hCRTH2 membranes
In short: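 Compound was first mixed with buffer, then 3H-PGD2 was added at 2.5 nM, and the reaction was started with hCRTH2 membranes from HEK293 cells at 20 μg/well. After 90 min at room temperature, mixtures were filtered and washed with ice-cold buffer, and retained radioactivity was counted.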

hCRTH2 receptor, sequence (Q9Y5Y4 whole entry): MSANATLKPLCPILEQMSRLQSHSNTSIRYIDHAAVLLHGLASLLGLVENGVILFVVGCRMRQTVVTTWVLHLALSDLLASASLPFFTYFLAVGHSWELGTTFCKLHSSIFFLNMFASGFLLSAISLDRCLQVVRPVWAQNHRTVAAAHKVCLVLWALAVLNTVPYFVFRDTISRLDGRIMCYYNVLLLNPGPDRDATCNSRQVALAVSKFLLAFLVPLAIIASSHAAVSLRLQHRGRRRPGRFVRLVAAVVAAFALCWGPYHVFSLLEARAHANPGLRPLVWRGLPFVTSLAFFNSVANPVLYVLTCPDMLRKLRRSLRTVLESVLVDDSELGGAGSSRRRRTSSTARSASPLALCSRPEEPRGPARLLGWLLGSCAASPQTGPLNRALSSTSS

pIC50	SMILES
7.31	COc1ccc(CC(=O)O)cc1-c1ccc(F)c2c1CN(C(=O)/C=C/c1cc(C)nn1C)CC2 [Example 90, (3-{2-[(E)-3-(2,5-Dimethyl-2H-pyrazol-3-yl)-acryloyl]-5-fluoro-1,2,3,4-tetrahydro-isoquinolin-8-yl}-4-methoxy-phenyl)-acetic acid]
6.01	COc1ccc(CC(=O)O)cc1-c1ccc(F)c2c1CN(C(=O)[C@H](C)c1ccccc1)CC2 [Example 255, {3-[5-Fluoro-2-((R)-2-phenyl-propionyl)-1,2,3,4-tetrahydro-isoquinolin-8-yl]-4-methoxy-phenyl}-acetic acid]
7.56	CCOc1ccc(CC(=O)O)cc1-c1ccc(F)c2c1CN(C(=O)CC(C)c1cnccn1)CC2 (racemic) [Example 281]
6.98	COc1ccc(CC(=O)O)cc1-c1ccc(F)c2c1CCN(C(=O)CCCc1ccccc1)C2 [Example 100, {3-[8-Fluoro-2-(4-phenyl-butyryl)-1,2,3,4-tetrahydro-isoquinolin-5-yl]-4-methoxy-phenyl}-acetic acid]
7.52	CCOc1ccc(CC(=O)O)cc1-c1ccc(F)c2c1CN(C(=O)/C=C/c1ccn(C)n1)CC2 [Example 337, (4-Ethoxy-3-{5-fluoro-2-[(E)-3-(1-methyl-1H-pyrazol-3-yl)-acryloyl]-1,2,3,4-tetrahydro-isoquinolin-8-yl}-phenyl)-acetic acid]
8.59	CCOc1ccc(CC(=O)O)cc1-c1ccc(F)c2c1CN(C(=O)NCCc1ccccc1)CC2 [Example 435, [4-Ethoxy-3-(5-fluoro-2-phenethylcarbamoyl-1,2,3,4-tetrahydro-isoquinolin-8-yl)-phenyl]-acetic acid]
8.85	O=C(O)Cc1ccc(-c2ccc(F)c3c2CN(C(=O)[C@@H]2C[C@H]2c2ccccc2)CC3)c(OCC(F)(F)F)c1 [Example 289, [4-[5-Fluoro-2-((1R,2R)-2-phenyl-cyclopropanecarbonyl)-1,2,3,4-tetrahydro-isoquinolin-8-yl]-3-(2,2,2-trifluoro-ethoxy)-phenyl]-acetic acid]
8.05	CC(C)(CC(=O)N1CCc2c(F)ccc(-c3ccc(CC(=O)O)cc3OCC(F)(F)F)c2C1)c1ccccc1 [Example 286, [4-[5-Fluoro-2-(3-methyl-3-phenyl-butyryl)-1,2,3,4-tetrahydro-isoquinolin-8-yl]-3-(2,2,2-trifluoro-ethoxy)-phenyl]-acetic acid]
6.69	COc1ccc(CC(=O)O)cc1-c1ccc(F)c2c1CN(C(=O)C1CCc3ccccc31)CC2 (racemic) [Example 112, (±)-{3-[5-Fluoro-2-(indane-1-carbonyl)-1,2,3,4-tetrahydro-isoquinolin-8-yl]-4-methoxy-phenyl}-acetic acid]
7.89	O=C(O)Cc1ccc(Cl)c(-c2ccc(F)c3c2CN(C(=O)OCc2ccccc2)CC3)c1 [Example 9, 8-(5-Carboxymethyl-2-chloro-phenyl)-5-fluoro-3,4-dihydro-1H-isoquinoline-2-carboxylic acid benzyl ester]
6.54	O=C(O)CCCOc1ccc(F)cc1-c1cccc2c1CN(C(=O)OCc1ccccc1)CC2 [Example 174, 8-[2-(3-Carboxy-propoxy)-5-fluoro-phenyl]-3,4-dihydro-1H-isoquinoline-2-carboxylic acid benzyl ester]
7.65	COc1ccc(CC(=O)O)cc1-c1ccc(F)c2c1CN(C(=O)CC1CCOc3c(F)cccc31)CC2 (racemic) [Example 246]
7.58	O=C(O)Cc1ccc(-c2ccc(F)c3c2CN(C(=O)OCc2ccccc2)CC3)c(Cl)c1 [Example 165, 8-(4-Carboxymethyl-2-chloro-phenyl)-5-fluoro-3,4-dihydro-1H-isoquinoline-2-carboxylic acid benzyl ester]
8.09	COc1ccc(CC(=O)O)cc1-c1ccc(F)c2c1CN(C(=O)CC1Cc3ccccc3C1)CC2 [Example 111, {3-[5-Fluoro-2-(2-indan-2-yl-acetyl)-1,2,3,4-tetrahydro-isoquinolin-8-yl]-4-methoxy-phenyl}-acetic acid]
7.85	CCOc1ccc(CC(=O)O)cc1-c1ccc(F)c2c1CN(C(=O)OCCC(C)(C)O)CC2 [Example 382, 8-(5-Carboxymethyl-2-ethoxy-phenyl)-5-fluoro-3,4-dihydro-1H-isoquinoline-2-carboxylic acid 3-hydroxy-3-methyl-butyl ester]
7.83	O=C(O)Cc1cc(F)cc(-c2ccc(F)c3c2CN(C(=O)OCc2ccccc2)CC3)c1 [Example 14, 8-(3-Carboxymethyl-5-fluoro-phenyl)-5-fluoro-3,4-dihydro-1H-isoquinoline-2-carboxylic acid benzyl ester]
8.47	CCOc1cc(CC(=O)O)ccc1-c1ccc(F)c2c1CN(C(=O)OCc1cnccn1)CC2 [Example 386, 8-(4-Carboxymethyl-2-ethoxy-phenyl)-5-fluoro-3,4-dihydro-1H-isoquinoline-2-carboxylic acid pyrazin-2-ylmethyl ester]

pIC50	SMILES
8.70	CCOc1cc(CC(=O)O)ccc1-c1ccc(F)c2c1CN(C(=O)NCc1ccccc1Cl)CC2 [Example 444, {4-[2-(2-Chloro-benzylcarbamoyl)-5-fluoro-1,2,3,4-tetrahydro-isoquinolin-8-yl]-3-ethoxy-phenyl}-acetic acid]
6.60	COc1ccc(CC(=O)O)cc1-c1ccc(OC)c2c1CN(C(=O)OCc1ccccc1)CC2 [Example 156, 8-(5-Carboxymethyl-2-methoxy-phenyl)-5-methoxy-3,4-dihydro-1H-isoquinoline-2-carboxylic acid benzyl ester]
6.21	COc1ccc(CC(=O)O)cc1-c1ccc(F)c2c1CN(C(=O)CC1CC1)CC2 [Example 254, {3-[2-(2-Cyclopropyl-acetyl)-5-fluoro-1,2,3,4-tetrahydro-isoquinolin-8-yl]-4-methoxy-phenyl}-acetic acid]
7.85	CCOc1ccc(CC(=O)O)cc1-c1ccc(F)c2c1CN(C(=O)NCc1ccccn1)CC2 [Example 449, (4-Ethoxy-3-{5-fluoro-2-[(pyridin-2-ylmethyl)-carbamoyl]-1,2,3,4-tetrahydro-isoquinolin-8-yl}-phenyl)-acetic acid]
8.09	CC(CC(=O)N1CCc2c(F)ccc(-c3cc(CC(=O)O)ccc3OCC(F)(F)F)c2C1)c1ccccn1 (racemic) [Example 302]
7.20	COc1ccc(C(C)C(=O)O)cc1-c1ccc(F)c2c1CN(C(=O)OCc1ccccc1F)CC2 (racemic) [Example 140, (±)-8-[5-(1-Carboxy-ethyl)-2-methoxy-phenyl]-5-fluoro-3,4-dihydro-1H-isoquinoline-2-carboxylic acid 2-fluoro-benzyl ester]
7.76	O=C(O)COc1ccc(Cl)c(-c2ccc(Cl)c3c2CN(C(=O)OCc2ccccc2)CC3)c1 [Example 178, 8-(5-Carboxymethoxy-2-chloro-phenyl)-5-chloro-3,4-dihydro-1H-isoquinoline-2-carboxylic acid benzyl ester]
8.66	CCOc1ccc(CC(=O)O)cc1-c1ccc(F)c2c1CN(C(=O)CC(C)c1ccccc1OC)CC2 (racemic) [Example 282]
8.75	COc1ccc(CC(=O)O)cc1-c1ccc(F)c2c1CN(C(=O)[C@@H]1C[C@H]1c1ccccc1F)CC2 [Example 66, (3-{5-Fluoro-2-[(1R,2R)-2-(2-fluoro-phenyl)-cyclopropanecarbonyl]-1,2,3,4-tetrahydro-isoquinolin-8-yl}-4-methoxy-phenyl)-acetic acid]
8.47	O=C(O)Cc1ccc(OCC(F)(F)F)c(-c2ccc(F)c3c2CN(C(=O)CC2COc4ccccc42)CC3)c1 (racemic) [Example 307]
8.80	CC(C)Oc1cc(CC(=O)O)ccc1-c1ccc(F)c2c1CN(C(=O)[C@@H]1C[C@H]1c1ccccc1)CC2 [Example 357, {4-[5-Fluoro-2-((1R,2R)-2-phenyl-cyclopropanecarbonyl)-1,2,3,4-tetrahydro-isoquinolin-8-yl]-3-isopropoxy-phenyl}-acetic acid]
6.12	CCCNC(=O)N1CCc2c(F)ccc(-c3cc(CC(=O)O)ccc3OC)c2C1 [Example 137, [3-(5-Fluoro-2-propylcarbamoyl-1,2,3,4-tetrahydro-isoquinolin-8-yl)-4-methoxy-phenyl]-acetic acid]
7.06	O=C(O)COc1cc(Cl)cc(-c2ccc(F)c3c2CN(C(=O)OCc2ccccc2)CC3)c1 [Example 144, 8-(3-Carboxymethoxy-5-chloro-phenyl)-5-fluoro-3,4-dihydro-1H-isoquinoline-2-carboxylic acid benzyl ester]
7.69	O=C(O)Cc1cc(Cl)cc(-c2ccc(F)c3c2CN(C(=O)OCc2ccccc2)CC3)c1 [Example 19, 8-(3-Carboxymethyl-5-chloro-phenyl)-5-fluoro-3,4-dihydro-1H-isoquinoline-2-carboxylic acid benzyl ester]
7.95	COc1ccc(CC(=O)O)cc1-c1c(F)cc(F)c2c1CN(C(=O)[C@@H]1C[C@H]1c1ccccc1)CC2 [Example 38, {3-[5,7-Difluoro-2-((1R,2R)-2-phenyl-cyclopropanecarbonyl)-1,2,3,4-tetrahydro-isoquinolin-8-yl]-4-methoxy-phenyl}-acetic acid]
6.72	O=C(O)Cc1ccc(F)c(-c2cccc3c2CN(C(=O)OCc2ccccc2)CC3)c1 [Example 23, 8-(5-Carboxymethyl-2-fluoro-phenyl)-3,4-dihydro-1H-isoquinoline-2-carboxylic acid benzyl ester]
8.62	COc1cc(CC(=O)O)ccc1-c1ccc(F)c2c1CN(C(=O)CCN1CCc3ccccc31)CC2 [Example 191, {4-[2-(3-2,3-Dihydro-indol-1-yl-propionyl)-5-fluoro-1,2,3,4-tetrahydro-isoquinolin-8-yl]-3-methoxy-phenyl}-acetic acid]

SMILES	pIC50
COc1ccc(CC(=O)O)cc1-c1ccc(F)c2c1CN(C(=O)COC(C)(C)C)CC2 [Example 47, {3-[2-(2-tert-Butoxy-acetyl)-5-fluoro-1,2,3,4-tetrahydro-isoquinolin-8-yl]-4-methoxy-phenyl}-acetic acid]	6.26
